Earlier results in patent publication US12357645B2, “Drug combination for treatment of gastric cancer” (priority 2023, dated 2025).

Experiments:
[1] = cited from earlier work
[2] = test system: gastric cancer; settings: by stimulating expression of p53 and p21 (waf1/cip1); cited from earlier work

## CC(C)[C@]12O[C@H]1[C@@H]1O[C@]13[C@]1(O[C@H]1C[C@H]1C4=C(CC[C@@]13C)C(=O)OC4)[C@@H]2O [triptolide, reference compound]
[1]
  aqueous solubility: limited aqueous solubility
[2]
  cell growth and apoptosis: inhibit cell growth and induce apoptosis
